Laboratory results as given in ChEMBL document CHEMBL1201862, “PubChem BioAssay data set” (2004).
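Protocol summary: plate cells (96-well), add compound at 5 concentrations, incubate 48 h, interpolate endpoints linearly. GI50 = concentration required for 50% inhibition of growth.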 The source made the active and inactive calls. No stated cut-off is given here; in the data, active = GI50 up to about 1.1 µM and inactive = higher.

Assays:
Experiment in all cases: NCI tumour cell line growth inhibition, 48 h
COLO 205 = system: COLO 205
HCT-15 = system: HCT-15
IGROV-1 = system: IGROV-1
KM12 = system: KM12
M14 = system: M14
NCI-H460 = system: NCI-H460
OVCAR-5 = system: OVCAR-5
OVCAR-8 = system: OVCAR-8
SK-MEL-28 = system: SK-MEL-28
SK-MEL-2 = system: SK-MEL-2
TK-10 = system: TK-10
HL-60 = system: HL-60
HOP-92 = system: HOP-92
Malme-3M = system: Malme-3M
NCI-H226 = system: NCI-H226
SK-OV-3 = system: SK-OV-3
SNB-75 = system: SNB-75
U-251 = system: U-251
CAKI-1 = system: CAKI-1

Compound | GI50 (COLO 205) | GI50 (HCT-15) [µM] | GI50 (IGROV-1) | GI50 (KM12) | GI50 (M14) | GI50 (NCI-H460) | GI50 (OVCAR-5) | GI50 (OVCAR-8) | GI50 (SK-MEL-28) | GI50 (SK-MEL-2) | GI50 (TK-10) | GI50 (HL-60) | GI50 (HOP-92) | GI50 (Malme-3M) | GI50 (NCI-H226) | GI50 (SK-OV-3) | GI50 (SNB-75) | GI50 (U-251) | GI50 (CAKI-1)
COc1cc(OC)c(C2c3cc4c(cc3OC(N3CCCC3)C2C)OCO4)c(OC)c1 (configuration not stated) | > 10 µM (inactive) | 6.11 | 13.5 µM (inactive) | 10.6 µM (inactive) | 12.2 µM (inactive) | 13.2 µM (inactive) | 18.5 µM (inactive) | 16.3 µM (inactive) | 18.4 µM (inactive) | 18.7 µM (inactive) | 19.1 µM (inactive) |  |  |  |  |  |  |  | 
COc1cc(/C=C2\[C@H]3c4c(c(OC)c(C)c(OC)c4OC)C[C@@H](C(=O)N2Cc2ccccc2)N3C(=O)OC(C)C)c(OC)c(C)c1OC | 53.7 µM (inactive) |  | > 100 µM (inactive) | 66.8 µM (inactive) | > 100 µM (inactive) | 5.31 µM (inactive) | > 100 µM (inactive) | > 100 µM (inactive) | > 100 µM (inactive) | > 100 µM (inactive) | 79.3 µM (inactive) | 19.8 µM (inactive) | 8.34 µM (inactive) | 60.1 µM (inactive) | 6.08 µM (inactive) | 2.52 µM (inactive) | > 100 µM (inactive) | 53.1 µM (inactive) | 
O=C1c2ccc(O)c(O)c2C(=O)c2c(O)ccc(O)c21 [QUINALIZARIN] | 22.2 µM (inactive) | 25.7 | 38.4 µM (inactive) | 30.9 µM (inactive) | 21.5 µM (inactive) | 21.2 µM (inactive) | 28.4 µM (inactive) | 28.1 µM (inactive) | 56 µM (inactive) | 25.7 µM (inactive) | 33.8 µM (inactive) |  | 25.4 µM (inactive) |  | 22 µM (inactive) | 29.7 µM (inactive) | > 10 µM (inactive) | 34.2 µM (inactive) | 6.05 µM (inactive)
COC(=O)C(=O)C(C(=O)C(=O)Nc1ccc(OC)cc1[N+](=O)[O-])c1nc2ccc([N+](=O)[O-])cc2nc1O (configuration not stated) | > 100 µM (inactive) | > 100 | > 100 µM (inactive) | > 100 µM (inactive) | > 100 µM (inactive) | > 100 µM (inactive) | > 100 µM (inactive) | > 100 µM (inactive) |  |  | > 100 µM (inactive) | > 100 µM (inactive) | > 100 µM (inactive) | > 100 µM (inactive) | > 100 µM (inactive) | > 100 µM (inactive) | 26.5 µM (inactive) | > 100 µM (inactive) | > 100 µM (inactive)
COC(=O)CCC(NC(=S)N/N=C(\C)c1ccco1)C(=O)OC (configuration not stated) | > 100 µM (inactive) | > 100 | > 100 µM (inactive) | > 100 µM (inactive) | > 100 µM (inactive) | > 100 µM (inactive) | > 100 µM (inactive) | > 100 µM (inactive) | > 100 µM (inactive) | > 100 µM (inactive) | > 100 µM (inactive) | > 100 µM (inactive) |  | > 100 µM (inactive) | > 100 µM (inactive) | > 100 µM (inactive) | > 100 µM (inactive) | > 100 µM (inactive) | 
C1CC[N+]23CCCC[N+]2(C1)CCCC3 (configuration not stated) | > 100 µM (inactive) | > 100 | > 100 µM (inactive) |  | > 100 µM (inactive) | > 100 µM (inactive) | > 100 µM (inactive) | > 100 µM (inactive) | > 100 µM (inactive) | > 100 µM (inactive) | > 100 µM (inactive) | > 100 µM (inactive) |  | > 100 µM (inactive) | > 100 µM (inactive) | > 100 µM (inactive) | > 100 µM (inactive) | > 100 µM (inactive) | > 100 µM (inactive)
C[Si](C)(C)/C=C\CCCN1C(=O)CCC1=O | > 100 µM (inactive) | > 100 | > 100 µM (inactive) | > 100 µM (inactive) | > 100 µM (inactive) | > 100 µM (inactive) | 86.5 µM (inactive) | > 100 µM (inactive) | > 100 µM (inactive) | > 100 µM (inactive) | > 100 µM (inactive) | > 100 µM (inactive) | > 100 µM (inactive) | > 100 µM (inactive) |  | > 100 µM (inactive) | 62.5 µM (inactive) | > 100 µM (inactive) | 
COc1ccc2c(c1)[n+]([O-])c(-c1ccc(OC)c(OC)c1)c(N)[n+]2[O-] | 18.7 µM (inactive) | 37.2 | > 100 µM (inactive) | 98.2 µM (inactive) | 57.4 µM (inactive) | 49.4 µM (inactive) | > 100 µM (inactive) | > 100 µM (inactive) | 25.4 µM (inactive) | 92.3 µM (inactive) | > 100 µM (inactive) | 53.2 µM (inactive) |  | 46.3 µM (inactive) | > 100 µM (inactive) | > 100 µM (inactive) | > 100 µM (inactive) | 68.7 µM (inactive) | 32.1 µM (inactive)
Fc1ccc(C2SCc3nc4ccccc4n32)cc1F (configuration not stated) | 27.6 µM (inactive) | 35.7 | 33.5 µM (inactive) | 27.6 µM (inactive) | 25.7 µM (inactive) | 37.4 µM (inactive) |  | 33.8 µM (inactive) | 23.4 µM (inactive) | 23.8 µM (inactive) | 26 µM (inactive) | 7.8 µM (inactive) |  | 25.9 µM (inactive) |  | 46.5 µM (inactive) | 20.1 µM (inactive) | 48.2 µM (inactive) | 43.1 µM (inactive)
Cc1cc([N+](=O)[O-])ccc1NC(=O)C(=O)C(C(=O)c1ccccc1-c1ccccc1)C1OC(=O)c2ccccc21 (configuration not stated) | 20.8 µM (inactive) | 15.1 | 19.6 µM (inactive) | 15 µM (inactive) | 14 µM (inactive) | 17 µM (inactive) | 15.4 µM (inactive) | 20.8 µM (inactive) | 14.8 µM (inactive) | 12.6 µM (inactive) | 17.8 µM (inactive) |  | 16.9 µM (inactive) | 13.1 µM (inactive) | 12.2 µM (inactive) | 22.7 µM (inactive) |  | 12.5 µM (inactive) | 23.8 µM (inactive)
c1ccc(NCn2cnc3ccccc32)cc1 | > 100 µM (inactive) | 15.6 | > 100 µM (inactive) | > 100 µM (inactive) |  | > 100 µM (inactive) | > 100 µM (inactive) | > 100 µM (inactive) | > 100 µM (inactive) | > 100 µM (inactive) | > 100 µM (inactive) |  |  | > 100 µM (inactive) | > 100 µM (inactive) | > 100 µM (inactive) | 56.9 µM (inactive) | > 100 µM (inactive) | 
Cc1cc2c(c(C(=O)O)c1C)-c1cccc(F)c1C2=O | > 100 µM (inactive) | > 100 | > 100 µM (inactive) | > 100 µM (inactive) | > 100 µM (inactive) | > 100 µM (inactive) | > 100 µM (inactive) | > 100 µM (inactive) | > 100 µM (inactive) | > 100 µM (inactive) | > 100 µM (inactive) |  |  | > 100 µM (inactive) | 55.1 µM (inactive) | > 100 µM (inactive) | > 100 µM (inactive) | > 100 µM (inactive) | > 100 µM (inactive)
O=C(CSSCC(=O)OCCS(=O)(=O)Nc1ccc(Br)cc1)OCCS(=O)(=O)Nc1ccc(Br)cc1 | 11.6 µM (inactive) | 14.5 | 17.3 µM (inactive) | 13.3 µM (inactive) | 12.8 µM (inactive) | 14.5 µM (inactive) | 13.9 µM (inactive) | 10.4 µM (inactive) | 21.7 µM (inactive) | 12.5 µM (inactive) | 20.7 µM (inactive) | 14.7 µM (inactive) | 13.1 µM (inactive) | 3.8 µM (inactive) |  | 18.9 µM (inactive) | 28.2 µM (inactive) | 21.7 µM (inactive) | 2.83 µM (inactive)
NCCCN(CCCN(C(=O)Nc1ccccc1)c1ccccc1)C(=O)Nc1ccccc1 | 36.8 µM (inactive) | 28.9 | 51.1 µM (inactive) |  | 19.4 µM (inactive) | 31 µM (inactive) | 43.2 µM (inactive) | 49.3 µM (inactive) | 16.7 µM (inactive) | 21.9 µM (inactive) | 38.4 µM (inactive) | 28.1 µM (inactive) | 27.2 µM (inactive) | 20 µM (inactive) | 44 µM (inactive) | 45.6 µM (inactive) | 23.2 µM (inactive) | 36.6 µM (inactive) | 
NC(=O)C12C3C4C1C1C2C3C41C(N)=O (configuration not stated) | > 100 µM (inactive) | > 100 | > 100 µM (inactive) | > 100 µM (inactive) | > 100 µM (inactive) | > 100 µM (inactive) | > 100 µM (inactive) | > 100 µM (inactive) | > 100 µM (inactive) | > 100 µM (inactive) | > 100 µM (inactive) | > 100 µM (inactive) | > 100 µM (inactive) |  | > 100 µM (inactive) | > 100 µM (inactive) | > 100 µM (inactive) | > 100 µM (inactive) | > 100 µM (inactive)
COc1cc(/C=N/N=C(\N)NO)cc(Cl)c1O | > 100 µM (inactive) | 66.8 | 69.7 µM (inactive) | 78 µM (inactive) | 33.4 µM (inactive) | 41.6 µM (inactive) | 35.3 µM (inactive) | 65.6 µM (inactive) | 20.7 µM (inactive) | 81.1 µM (inactive) |  |  | 57.8 µM (inactive) | 55.2 µM (inactive) | 22.8 µM (inactive) | 55.8 µM (inactive) |  | 48.9 µM (inactive) | 26.9 µM (inactive)
NC1C[C@H](n2cc(/C=C/Br)c(=O)[nH]c2=O)C[C@@H]1CO (some centres not stated) | > 100 µM (inactive) | > 100 |  |  | > 100 µM (inactive) | > 100 µM (inactive) |  | > 100 µM (inactive) | > 100 µM (inactive) |  | > 100 µM (inactive) | > 100 µM (inactive) |  |  | > 100 µM (inactive) | > 100 µM (inactive) | > 100 µM (inactive) | > 100 µM (inactive) | 
